Data as given in publication PMC12313340, “Functional analysis of a UDP-glucosyltransferase gene contributing to biosynthesis of the flavonol triglycoside in tea plants” (Horticulture Research, 2025).

Legend:
CsFGT (rCsFGT) [1] = target: T1, CsFGT (rCsFGT) (Camellia sinensis, UniProt A0A0X9FCW5, E292T); test: product formation by HPLC; type: biochemical; settings: co-substrate UDP-glc
T1 construct: gene UGT91Q1; N-terminal 6xHis-trigger factor fusion (pCold-TF), about 105 kDa; E. coli Origami (DE3); tag not removed for kinetics
T1 sequence (A0A0X9FCW5 entry or part of it E292T): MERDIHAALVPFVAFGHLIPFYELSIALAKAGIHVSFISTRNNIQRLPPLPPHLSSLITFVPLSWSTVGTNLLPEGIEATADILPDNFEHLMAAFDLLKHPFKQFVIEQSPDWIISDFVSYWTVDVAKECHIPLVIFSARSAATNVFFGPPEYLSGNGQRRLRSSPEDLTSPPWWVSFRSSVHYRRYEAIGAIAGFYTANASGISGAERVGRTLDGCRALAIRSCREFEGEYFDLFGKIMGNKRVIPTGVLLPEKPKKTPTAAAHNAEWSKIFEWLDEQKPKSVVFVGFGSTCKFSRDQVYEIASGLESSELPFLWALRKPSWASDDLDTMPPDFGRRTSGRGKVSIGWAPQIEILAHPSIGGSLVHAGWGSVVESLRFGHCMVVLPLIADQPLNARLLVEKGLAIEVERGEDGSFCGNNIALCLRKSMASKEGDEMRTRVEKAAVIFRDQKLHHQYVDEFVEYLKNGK

CsFGT (rCsFGT) [2] = target: T2, CsFGT (rCsFGT) (Camellia sinensis, UniProt A0A0X9FCW5, E292Q); test: product formation by HPLC; type: biochemical; settings: co-substrate UDP-glc
T2 construct: gene UGT91Q1; N-terminal 6xHis-trigger factor fusion (pCold-TF), about 105 kDa; E. coli Origami (DE3); tag not removed for kinetics
T2 sequence (A0A0X9FCW5 entry or part of it E292Q): as the sequence (A0A0X9FCW5 entry or part of it E292T) above, with T292Q counted along it

CsFGT (rCsFGT) [3] = target: T3, CsFGT (rCsFGT) (Camellia sinensis, UniProt A0A0X9FCW5, S291G); test: product formation by HPLC; type: biochemical; settings: co-substrate UDP-glc
T3 construct: gene UGT91Q1; N-terminal 6xHis-trigger factor fusion (pCold-TF), about 105 kDa; E. coli Origami (DE3); tag not removed for kinetics
T3 sequence (A0A0X9FCW5 entry or part of it S291G): as the sequence (A0A0X9FCW5 entry or part of it E292T) above, with S291G, T292E counted along it

CsFGT (rCsFGT) [4] = target: T4, CsFGT (rCsFGT) (Camellia sinensis, UniProt A0A0X9FCW5, R319N); test: product formation by HPLC; type: biochemical; settings: co-substrate UDP-glc
T4 construct: gene UGT91Q1; N-terminal 6xHis-trigger factor fusion (pCold-TF), about 105 kDa; E. coli Origami (DE3); tag not removed for kinetics
T4 sequence (A0A0X9FCW5 entry or part of it R319N): as the sequence (A0A0X9FCW5 entry or part of it E292T) above, with T292E, R319N counted along it

CsFGT (rCsFGT) [5] = target: T5, CsFGT (rCsFGT) (Camellia sinensis, UniProt A0A0X9FCW5, R319P); test: product formation by HPLC; type: biochemical; settings: co-substrate UDP-glc
T5 construct: gene UGT91Q1; N-terminal 6xHis-trigger factor fusion (pCold-TF), about 105 kDa; E. coli Origami (DE3); tag not removed for kinetics
T5 sequence (A0A0X9FCW5 entry or part of it R319P): as the sequence (A0A0X9FCW5 entry or part of it E292T) above, with T292E, R319P counted along it

CsFGT (rCsFGT) [6] = target: T6, CsFGT (rCsFGT) (Camellia sinensis, UniProt A0A0X9FCW5, Q352A); test: product formation by HPLC; type: biochemical; settings: co-substrate UDP-glc
T6 construct: gene UGT91Q1; N-terminal 6xHis-trigger factor fusion (pCold-TF), about 105 kDa; E. coli Origami (DE3); tag not removed for kinetics
T6 sequence (A0A0X9FCW5 entry or part of it Q352A): as the sequence (A0A0X9FCW5 entry or part of it E292T) above, with T292E, Q352A counted along it

CsFGT (rCsFGT) [7] = target: T7, CsFGT (rCsFGT) (Camellia sinensis, UniProt A0A0X9FCW5, G290A); test: product formation by HPLC; type: biochemical; settings: co-substrate UDP-glc
T7 construct: gene UGT91Q1; N-terminal 6xHis-trigger factor fusion (pCold-TF), about 105 kDa; E. coli Origami (DE3); tag not removed for kinetics
T7 sequence (A0A0X9FCW5 entry or part of it G290A): as the sequence (A0A0X9FCW5 entry or part of it E292T) above, with G290A, T292E counted along it

CsFGT (rCsFGT) [8] = target: T8, CsFGT (rCsFGT) (Camellia sinensis, UniProt A0A0X9FCW5, Q352I); test: product formation by HPLC; type: biochemical; settings: co-substrate UDP-glc
T8 construct: gene UGT91Q1; N-terminal 6xHis-trigger factor fusion (pCold-TF), about 105 kDa; E. coli Origami (DE3); tag not removed for kinetics
T8 sequence (A0A0X9FCW5 entry or part of it Q352I): as the sequence (A0A0X9FCW5 entry or part of it E292T) above, with T292E, Q352I counted along it

[9] = substrate: C[C@@H]1O[C@@H](OC[C@H]2O[C@@H](Oc3c(-c4ccc(O)c(O)c4)oc4cc(O)cc(O)c4c3=O)[C@H](O)[C@@H](O)[C@@H]2O)[C@H](O)[C@H](O)[C@H]1O; test: UDP-Glo glycosyltransferase assay, Michaelis-Menten fit; type: biochemical, Camellia sinensis; settings: 1 mM UDP-glucose, 50 mM phosphate pH 8.0, 30°C, 10 min
From the text: (§1) UDP-Glo glycosyltransferase assay, Michaelis-Menten fit on CsFGT (rCsFGT)

[10] = substrate: O=c1ccn([C@@H]2O[C@H](COP(=O)(O)OP(=O)(O)O[C@H]3O[C@H](CO)[C@H](O)[C@H](O)[C@H]3O)[C@@H](O)[C@H]2O)c(=O)[nH]1; test: as above; type: biochemical, Camellia sinensis; settings: co-substrate delphinidin, pH 8.0, 30°C, 10 min, galactosyl transfer
From the text: as §1

[11] = substrate: O=c1ccn([C@@H]2O[C@H](CO[P@@](=O)(O)O[P@@](=O)(O)O[C@H]3O[C@H](CO)[C@@H](O)[C@H](O)[C@H]3O)[C@@H](O)[C@H]2O)c(=O)[nH]1; test: as above; type: biochemical, Camellia sinensis; settings: 100 μM Q-g-r (rutin), 50 mM phosphate pH 8.0, 30°C, 10 min
From the text: as §1

[12] = substrate: Oc1cc(O)c2cc(O)c(-c3cc(O)c(O)c(O)c3)[o+]c2c1; test: as above; type: biochemical, Camellia sinensis; settings: 1 mM UDP-galactose, pH 8.0, 30°C, 10 min, galactosyl transfer
From the text: as §1

With C[C@@H]1O[C@@H](OC[C@H]2O[C@@H](Oc3c(-c4ccc(O)c(O)c4)oc4cc(O)cc(O)c4c3=O)[C@H](O)[C@@H](O)[C@@H]2O)[C@H](O)[C@H](O)[C@H]1O [Q-g-r] the relative enzymatic activity (CsFGT (rCsFGT) [1]) was “E292T, Q352A, and Q352I mutants exhibited significantly decreased activity”, the relative enzymatic activity (CsFGT (rCsFGT) [2]) was “mutants with activity unchanged or enhanced (G290A, S291G, E292Q, R319N, and R319P)” and the relative enzymatic activity (CsFGT (rCsFGT) [3]) was “mutants with activity unchanged or enhanced (G290A, S291G, E292Q, R319N, and R319P)”. For the same molecule, the relative enzymatic activity (CsFGT (rCsFGT) [4]) was “the mutant R319N had significantly enhanced activity”, the relative enzymatic activity (CsFGT (rCsFGT) [5]) was “mutants with activity unchanged or enhanced (G290A, S291G, E292Q, R319N, and R319P)” and the relative enzymatic activity (CsFGT (rCsFGT) [6]) was “E292T, Q352A, and Q352I mutants exhibited significantly decreased activity”. The relative enzymatic activity (CsFGT (rCsFGT) [7]) was “mutants with activity unchanged or enhanced (G290A, S291G, E292Q, R319N, and R319P)” and the relative enzymatic activity (CsFGT (rCsFGT) [8]) was “E292T, Q352A, and Q352I mutants exhibited significantly decreased activity”.

B1: CsFGT (rCsFGT) (Camellia sinensis) (protein)
chain: MERDIHAALVPFVAFGHLIPFYELSIALAKAGIHVSFISTRNNIQRLPPLPPHLSSLITFVPLSWSTVGTNLLPEGIEATADILPDNFEHLMAAFDLLKHPFKQFVIEQSPDWIISDFVSYWTVDVAKECHIPLVIFSARSAATNVFFGPPEYLSGNGQRRLRSSPEDLTSPPWWVSFRSSVHYRRYEAIGAIAGFYTANASGISGAERVGRTLDGCRALAIRSCREFEGEYFDLFGKIMGNKRVIPTGVLLPEKPKKTPTAAAHNAEWSKIFEWLDEQKPKSVVFVGFGSECKFSRDQVYEIASGLESSELPFLWALRKPSWASDDLDTMPPDFGRRTSGRGKVSIGWAPQIEILAHPSIGGSLVHAGWGSVVESLRFGHCMVVLPLIADQPLNARLLVEKGLAIEVERGEDGSFCGNNIALCLRKSMASKEGDEMRTRVEKAAVIFRDQKLHHQYVDEFVEYLKNGK
notes: N-terminal 6xHis-trigger factor fusion (pCold-TF), about 105 kDa; E. coli Origami (DE3); tag not removed for kinetics
B1 was tested, and the Km [9] was 50.3 ± 9.7 µM, the kcat/Km [9] was 610000 M⁻¹ s⁻¹ and the Km [10] was 1143.3 ± 313.5 µM. For the same molecule, the kcat/Km [10] was 3100 M⁻¹ s⁻¹, the Km [11] was 209.7 ± 43.9 µM and the kcat/Km [11] was 110000 M⁻¹ s⁻¹. It also gave a Km [12] of 902.5 ± 109.0 µM and a kcat/Km [12] of 24000 M⁻¹ s⁻¹.
